Patent US6436630B1, “Method for testing the toxicity of chemical substances using gastropods” (priority 1998, dated 2002)
Structures can show the parent of a compound that is named as a salt.

Legend:
[1] = system: foot mucosa of slugs of the species Arion; assay: Slug mucosal toxicity test of local anaesthetics, Example 4; type: in vivo; settings: in vivo; for % MP, mucus production as % of the body weight at the start of the day before the treatment / Total protein release into PBS: Arion (slug)
Protocol: The following local anaesthetics were used as test substance: procaine HCl, lidocaine HCl, prilocaine HCl, tetracaine HCl and bupivacaine HCl. All test substances were prepared in PBS (pH 7.4) at 1% w/v concentrations. The slugs were daily incubate during 15 min with the test solution during five days. After the incubation period the slugs were placed on 1 ml PBS in a petri dish. The PBS was sampled every hour and refreshed with 1 ml PBS for 3 hours after the treatment.
The total protein released into the PBS was determined.

[2] = system: foot mucosa of slugs of species Arion; assay: Slug mucosal toxicity test, Example 2 (15 min daily treatment, four days); settings: in vivo; for % MP, mucus production as % of the body weight at the start of the day before the treatment / ALP released into PBS / Protein released into PBS: Arion (slug)
Protocol: As test substance a β-blocking agent propranolo HCl (1% w/v) was used. Benzalkonium chloride (1% w/v) and Propranolol (1% w/v) were prepared in PBS (pH 7.4). The slugs were daily incubated during 15 min with the test solution during four days. After the incubation period the slugs were placed on 500 μL PBS in a petri dish. The PBS was sampled every hour and refreshed with 500 μL PBS for 3 hours after the treatment.
The enzymes (LDH, ALP) and the total protein released into the PBS were determined. The change in body weight and the mucus production caused by the treatment were examined.

| SMILES | % MP, mucus production as % of the body weight at the start of the day before the treatment ([1]; 1 day) [%] | Total protein release into PBS ([1]; 1 day) [µg/mL] | % MP, mucus production as % of the body weight at the start of the day before the treatment ([1]; 2 day) [%] | Total protein release into PBS ([1]; 2 day) [µg/mL] | % MP, mucus production as % of the body weight at the start of the day before the treatment ([1]; 3 day) [%] | Total protein release into PBS ([1]; 3 day) [µg/mL] | % MP, mucus production as % of the body weight at the start of the day before the treatment ([1]; 4 day) [%] | Total protein release into PBS ([1]; 4 day) [µg/mL] | % MP, mucus production as % of the body weight at the start of the day before the treatment ([1]; 5 day) [%] | Total protein release into PBS ([1]; 5 day) [µg/mL] | further results |
| --- | --- | --- | --- | --- | --- | --- | --- | --- | --- | --- | --- |
| CCCNC(C)C(=O)Nc1ccccc1C (stereo not shown) [Prilocaine HCl, prilocaine HCl] | 0 | 139 | 0 | 62 | 0 | 72 | 0 | 65 | 0 | 82 |  |
| CCN(CC)CCOC(=O)c1ccc(N)cc1 [Procaine HCl, procaine HCl] | 0 | 204 | 0 | 62 | 0 | 92 | 0 | 54 | 0 | 70 | damage (in words) [1]: little or no damage |
| CC(C)NCC(O)COc1cccc2ccccc12 (stereo not shown) [Propr, propranolol HCl] |  |  |  |  |  |  |  |  |  |  | % MP, mucus production as % of the body weight at the start of the day before the treatment ([2]; 1 day): 0.77%; ALP released into PBS ([2]; 1 day): 0.35 U/L; Protein released into PBS ([2]; 1 day): 4.89 μg/30 μL; % MP, mucus production as % of the body weight at the start of the day before the treatment ([2]; 2 day): 3.74%; ALP released into PBS ([2]; 2 day): 2.19 U/L; Protein released into PBS ([2]; 2 day): 31.61 μg/30 μL; % MP, mucus production as % of the body weight at the start of the day before the treatment ([2]; 3 day): 3.11%; ALP released into PBS ([2]; 3 day): 17.50 U/L; Protein released into PBS ([2]; 3 day): 31.36 μg/30 μL; % MP, mucus production as % of the body weight at the start of the day before the treatment ([2]; 4 day): 2.80%; ALP released into PBS ([2]; 4 day): 18.43 U/L; Protein released into PBS ([2]; 4 day): 20.88 μg/30 μL; colour of the mucus excreted by the slugs [2]: orange coloured; irritation (in words) [2]: considerable irritation; membrane damage (in words) [2]: severe membrane damage; survival of the slugs [2]: all the slugs were dead |
| CCCCNc1ccc(C(=O)OCCN(C)C)cc1 [Tetracaine HCl, tetracaine HCl] | 3.45 | 413 | 2.48 | 130 | 1.15 | 120 | 1.29 | 128 | 0.65 | 149 | mucus production (in words) [1]: increased mucus production; protein release (in words) [1]: increased protein release |
